Measured values as given in patent US20030220373A1, “Therapeutic uses of PPAR mediators” (priority 2000, published 2003).

Tested on: ABC1 expression
Assay: ABC1 up-regulation in human THP-1 cells by PPAR mediators (Northern blotting; also quantitative PCR Taqman)
Type: cell-based
Conditions: relative to DMSO
Description: THP-1 cells, a human monocytic cell line, are maintained in RPMI with 10% FCS (fetal calf serum)/[…] gentamycin/25 mM Hepes. Cells are plated at approximately 1×10^5 per cm^2 in RPMI/10% charcoal-stripped FCS (Hyclone) the presence or absence of 100 ng/ml PMA (phorbol myritic acid)(Gibco BRL) and the indicated concentrations of test compound or DMSO (dimethyl sulfoxide). Test compounds are refreshed daily. Alternatively, cells are incubated with […] AcLDL (acetylated LDL) as positive control. After 48 or 72 hours, cellular RNA is isolated with Trizol® (Gibco) according to the manufacturer's instructions. Total RNA ([…]) is subjected to Northern blotting. The fragment used as a probe is a 431bp PCR product of ABC1 corresponding to nucleotides (nt's) 3306-3737 of Genbank Ace # AJ012376 (T. Langmann et al,1999, BBRC 257, 29-33). The sequences of the primers usd to generate the fragment are: […] nt. pos 3306-3326 (forward); […] nt. pos 3737-3711 (reverse). Blots are hybridized with this probe labelled with [a32P]dCTP (Amersham) with ExpressHyb® (Clontech, Palo Alto Calif.) according to manufacturer's protocol, washed, and exposed to X-ray film. Resulting signals are quantitated by densitometry.
A representative example of a Northern blotting analysis is represented in FIG. 1 and corresponding graph bar in FIG. 2.

For `c1ccc(Cc2nnn[nH]2)c(COc2ccc(OCc3ccc4ccccc4n3)cc2)c1` [compound of formula VI, 5-[2-(4-(2-quinolinylmethoxy)phenoxymethyl)benzyl]tetrazole], the “increase in up-regulation of ABC 1 expression relative to treatment with DMSO” value was “fourteen fold increase”.

Same assay, conditions: treatment at 1 and 10 μM, Northern blotting (FIG. 1, FIG. 2)

With `Cc1cccc(COc2cccc(OCc3ccc4ccccc4n3)c2)c1C(=O)O` [RPR52] the “up-regulation of ABC1 expression” value was “up-regulation of ABC1 expression”.
For `Cc1cc(OCc2ccccc2)cc(OCc2cccc(OCc3ccc4ccccc4n3)c2)c1C(=O)O` [RPR64], the “up-regulation of ABC1 expression” value was “up-regulation of ABC1 expression”.

Tested on: ABC1 expression
Assay: ABC1 up-regulation in human primary hepatocytes (RNA analysis)
Type: cell-based
Conditions: human primary hepatocytes (FIG. 4)
Description: Assay Example 2: ABC 1 Up-regulation in Human Hepatocytes and Human Macrophages Derived Monocytes by Fenofibric Acid, and for Wy 14,643 and Related Cholesterol Efflux in Macrophages Human liver specimens are collected from healthy multiorgan donors for transplantation who died after severe traumatic brain injury. Hepatocytes are obtained by a two-step collagenase perfusion (REF). Cells are resuspended in minimal essential medium with Earl's salts with 10% FCS, 2 mM glutamine, […] gentamycin, seeded at density of 1.5×10^5 cells/cm^2 in plastic culture dishes coated with 20 mg rat tail collagene type I (Sigma).Medium is renewed after 4 hours of adhesion. After 20 hours the medium is discarded and differents compounds added at the indicated concentrations in serum-free medium. Total cellular RNA is extracted from differentated macrophages treated for 6 hours with different compounds using the RNA plus kit (Bioprobe System, Montreuil, france). RNA from human hepatocytes are prepared as described by Chomczynski and Sacchi. For RT-PCR analysis, total RNA is reverse transcribed using random hexamer primers and Superscript reverse transcriptase (Life Technologies) as sebsequently amplified by PCR. The resulting products are separated on a 1% agrose gel and stained with ethidium bromide.

With `Cc1cccc(Nc2cc(Cl)nc(SCC(=O)O)n2)c1C` [Wy 14,643, pyrinixic acid] the ABC1 up-regulation was “ABC1 up-regulation”.

Tested on: not given
Assay: not given
Conditions: not given

First: c1cc(OCc2ccc3ccccc3n2)cc(OCc2ccccc2-c2nnn[nH]2)c1 [Example 28, 5-(2-(3-(2-quinolinylmethyloxy)phenoxymethyl)phenyl)tetrazole]
Second: c1cc(OCc2ccc3ccccc3n2)cc(OCc2ccccc2Cc2nnn[nH]2)c1 [Example 28, 5-(2-(3-(2-quinolinylmethyloxy)phenoxymethyl)benzyl)tetrazole]
The melting point of the first is higher: 166 to 170 °C for the first, 145.5 to 147 °C for the second.

Compared with `O=C(O)c1cccc(COc2cccc(OCc3ccc4ccccc4n3)c2)c1` [Example 20, 3-(3-(2-quinolinylmethyloxy)phenoxymethyl)-benzoic acid], `COC(=O)c1cccc(COc2cccc(OCc3ccc4ccccc4n3)c2)c1` [Example 19, methyl 3-(3-(2-quinolinylmethyloxy)phenoxymethyl)benzoate] is lower in melting point: 149 to 151 °C for the first, 93 to 94 °C for the second.

Compared with `c1ccc2nc(COc3ccc(COc4ccc(Cc5nnn[nH]5)cc4)cc3)ccc2c1` [Example 12, 5-[4(4-(2-quinolinylmethyloxy)benzyloxy)benzyl]tetrazole], `c1cc(OCc2ccc(Cc3nnn[nH]3)cc2)cc(OCc2ccc3ccccc3n2)c1` [Example 28, 5-(4-(3-(2-quinolinylmethyloxy)phenoxymethyl)benzyl)tetrazole] is lower in melting point: 179 to 181 °C for the first, 149 to 151 °C for the second.

First: N#Cc1cccc(OCc2cccc(OCc3ccc4ccccc4n3)c2)c1 [Example 7, 3-[3-(2-quinolinylmethyloxy)benzyloxy]benzonitrile]
Second: c1cc(COc2cccc(-c3nnn[nH]3)c2)cc(OCc2ccc3ccccc3n2)c1 [Example 10, 5-[3-(3-(2-quinolinylmethyloxy)benzyloxy)-phenyl]tetrazole]
The melting point of the first is lower: 86 to 87 °C for the first, 169 to 172 °C for the second.

Compared with `COc1cc(C(=O)O)ccc1OCc1cccc(OCc2ccc3ccccc3n2)c1` [Example 15, 3-methoxy-4-(3-(2-quinolinylmethyloxy)benzyloxy)benzoic acid], `COC(=O)c1ccc(OCc2cccc(OCc3ccc4ccccc4n3)c2)c(OC)c1` [Example 14, methyl 3-methoxy-4-(3-(2-quinolinylmethyloxy)benzyloxy)-benzoate] is lower in melting point: 188 to 190 °C for the first, 100 to 101 °C for the second.

First: c1ccc2nc(COc3ccc(COc4ccc(-c5nnn[nH]5)cc4)cc3)ccc2c1 [Example 11, 5-[4-(4-(2-quinolinylmethyloxy)benzyloxy)phenyl]tetrazole]
Second: c1cc(COc2ccc(OCc3ccc4ccccc4n3)cc2)cc(OCc2nnn[nH]2)c1 [Example 32, 5-(3-(4-(2-quinolinylmethyloxy)phenoxymethyl)phenoxymethyl)tetrazole]
The melting point of the first is higher: 210 to 213 °C for the first, 131 to 132 °C for the second.

For `c1cc(OCc2cccc(-c3nnn[nH]3)c2)cc(OCc2ccc3ccccc3n2)c1` [Example 28, 5-(3-(3-(2-quinolinylmethyloxy)phenoxymethyl)phenyl)tetrazole], the melting point was 115 °C (dec.).
